HELM strings list units from the 5' end as sugar, base in round brackets, then linkage (d deoxyribose, r ribose, m 2'-O-methyl, p phosphodiester). Strings are as the collection lists them; they lack the last nucleoside at the 3' end of the tested compound. [moe] = 2'-O-(2-methoxyethyl) (MOE); [sp] = phosphorothioate linkage; [m5C] = 5-methylcytosine
What follows are substances tested against PRNP (assay: mouse, dose not given). Conditions: ASO.
Work on “RNA1{[moe](A)[sp].[moe]([m5C])p.[moe](T)p.[moe]([m5C])p.[moe](T)p.[moe](A)p.d(T)[sp].d(G)[sp].d(T)[sp].d(T)[sp].d(T)[sp].d(T)[sp].d([m5C])[sp].d([m5C])[sp].d(A)[sp].d(G)[sp].[moe](T)p.[moe](G)[sp].[moe]([m5C])}$$$$ (last 3' nucleoside missing)” yielded a 3 h FOB score of 1.25 score 0-7.
“RNA1{[moe](A)[sp].[moe]([m5C])p.[moe](T)p.[moe]([m5C])p.[moe](T)p.d(A)[sp].d(T)[sp].d(G)[sp].d(T)[sp].d(T)[sp].d(T)[sp].d(T)[sp].d([m5C])[sp].d([m5C])[sp].[moe](A)[sp].[moe](G)p.[moe](T)p.[moe](G)}$$$$ (last 3' nucleoside missing)” was tested, and the 3 h FOB score was 2.25 score 0-7.
“RNA1{[moe](A)[sp].[moe]([m5C])p.[moe](T)p.[moe]([m5C])p.d(T)[sp].d(A)[sp].d(T)[sp].d(G)[sp].d(T)[sp].d(T)[sp].d(T)[sp].d(T)[sp].d([m5C])[sp].d([m5C])[sp].[moe](A)p.[moe](G)p.[moe](T)p.[moe](G)[sp].[moe]([m5C])}$$$$ (last 3' nucleoside missing)” gave a 3 h FOB score of 1.5 score 0-7.
“RNA1{[moe](A)[sp].[moe]([m5C])p.[moe](T)p.d([m5C])[sp].d(T)[sp].d(A)[sp].d(T)[sp].d(G)[sp].d(T)[sp].d(T)[sp].d(T)[sp].d(T)[sp].d([m5C])[sp].[moe]([m5C])p.[moe](A)p.[moe](G)p.[moe](T)p.[moe](G)[sp].[moe]([m5C])}$$$$ (last 3' nucleoside missing)” was tested, and the 3 h FOB score was 1.5 score 0-7.
“RNA1{[moe](A)[sp].[moe]([m5C])p.[moe]([m5C])p.[moe](A)p.[moe](T)[sp].d(A)[sp].d(T)[sp].d(A)[sp].d([m5C])[sp].d([m5C])[sp].d(A)[sp].d(T)[sp].d(G)[sp].d(T)[sp].d(A)[sp].[moe]([m5C])p.[moe](A)p.[moe](G)[sp].[moe](T)}$$$$ (last 3' nucleoside missing)” was tested, and the 3 h FOB score was 4.75 score 0-7.
With “RNA1{[moe](G)[sp].[moe](A)p.[moe](G)p.[moe](T)p.[moe](G)[sp].d(A)[sp].d(A)[sp].d(T)[sp].d(T)[sp].d(A)[sp].d(T)[sp].d(T)[sp].d(T)[sp].d(T)[sp].d([m5C])[sp].[moe](T)p.[moe](T)p.[moe]([m5C])[sp].[moe](T)}$$$$ (last 3' nucleoside missing)” the 3 h FOB score was 2 score 0-7.
“RNA1{[moe](G)[sp].[moe](A)p.[moe](G)p.[moe]([m5C])p.[moe](A)[sp].d(A)[sp].d(T)[sp].d(A)[sp].d(T)[sp].d(A)[sp].d(T)[sp].d(T)[sp].d([m5C])[sp].d(A)[sp].d([m5C])[sp].[moe]([m5C])p.[moe](A)p.[moe](A)[sp].[moe](A)}$$$$ (last 3' nucleoside missing)” gave a 3 h FOB score of 2.5 score 0-7.
For “RNA1{[moe](G)[sp].[moe](A)p.[moe](T)p.[moe](T)p.[moe](G)[sp].d(T)[sp].d([m5C])[sp].d(T)[sp].d([m5C])[sp].d([m5C])[sp].d([m5C])[sp].d(T)[sp].d(A)[sp].d(T)[sp].d(T)[sp].[moe]([m5C])p.[moe](T)p.[moe](T)[sp].[moe](T)}$$$$ (last 3' nucleoside missing)”, the 3 h FOB score was 5.5 score 0-7.
In the case of “RNA1{[moe](G)[sp].[moe](G)p.[moe](A)p.[moe](A)p.[moe](T)[sp].d(G)[sp].d([m5C])[sp].d([m5C])[sp].d(A)[sp].d([m5C])[sp].d(A)[sp].d(T)[sp].d(A)[sp].d(T)[sp].d(A)[sp].[moe](G)p.[moe](G)p.[moe](G)[sp].[moe](T)}$$$$ (last 3' nucleoside missing)”, the 3 h FOB score was 4 score 0-7.
In the case of “RNA1{[moe](G)[sp].[moe](G)p.[moe](G)p.[moe](A)p.[moe](T)[sp].d(G)[sp].d(A)[sp].d(T)[sp].d([m5C])[sp].d(T)[sp].d(G)[sp].d([m5C])[sp].d(A)[sp].d(A)[sp].d(T)[sp].[moe](T)p.[moe](G)p.[moe](T)[sp].[moe](T)}$$$$ (last 3' nucleoside missing)”, the 3 h FOB score was 4 score 0-7.
With “RNA1{[moe](G)[sp].[moe](G)p.[moe](T)p.[moe](G)p.[moe](A)[sp].d(T)[sp].d(T)[sp].d(T)[sp].d(T)[sp].d(T)[sp].d(T)[sp].d([m5C])[sp].d([m5C])[sp].d(T)[sp].d(T)[sp].[moe](T)p.[moe]([m5C])p.[moe](T)[sp].[moe](T)}$$$$ (last 3' nucleoside missing)” the 3 h FOB score was 1 score 0-7.
Substance “RNA1{[moe](G)[sp].[moe](G)p.[moe](T)p.[moe](T)p.[moe](A)[sp].d(G)[sp].d([m5C])[sp].d(T)[sp].d(T)[sp].d(T)[sp].d(T)[sp].d(T)[sp].d(T)[sp].d(T)[sp].d([m5C])[sp].[moe](A)p.[moe]([m5C])p.[moe](T)[sp].[moe](G)}$$$$ (last 3' nucleoside missing)” has a 3 h FOB score of 4.75 score 0-7.
Work on “RNA1{[moe](G)[sp].[moe](G)p.[moe](T)p.[moe](T)p.[moe](A)[sp].d([m5C])[sp].d(A)[sp].d(T)[sp].d(A)[sp].d(A)[sp].d(T)[sp].d(G)[sp].d(T)[sp].d(T)[sp].d([m5C])[sp].[moe](A)p.[moe](T)p.[moe](T)[sp].[moe](T)}$$$$ (last 3' nucleoside missing)” yielded a 3 h FOB score of 5 score 0-7.
Work on “RNA1{[moe](G)[sp].[moe](G)p.[moe](T)p.[moe](T)p.[moe](A)p.[moe]([m5C])p.d(A)[sp].d(T)[sp].d(A)[sp].d(A)[sp].d(T)[sp].d(G)[sp].d(T)[sp].d(T)[sp].d([m5C])[sp].d(A)[sp].[moe](T)p.[moe](T)[sp].[moe](T)}$$$$ (last 3' nucleoside missing)” yielded a 3 h FOB score of 3.75 score 0-7.
“RNA1{[moe](G)[sp].[moe](G)p.[moe](T)p.[moe](T)p.[moe](T)[sp].d(T)[sp].d(T)[sp].d(G)[sp].d(A)[sp].d([m5C])[sp].d(A)[sp].d(A)[sp].d(T)[sp].d(T)[sp].d(A)[sp].[moe](T)p.[moe](G)p.[moe](A)[sp].[moe](G)}$$$$ (last 3' nucleoside missing)” showed a 3 h FOB score of 5 score 0-7.
Substance “RNA1{[moe](G)[sp].[moe](G)p.[moe](T)p.[moe](T)p.[moe](T)[sp].d(T)[sp].d(T)[sp].d(G)[sp].d(G)[sp].d([m5C])[sp].d(T)[sp].d(T)[sp].d(A)[sp].d([m5C])[sp].d(T)[sp].[moe]([m5C])p.[moe](G)p.[moe](G)[sp].[moe]([m5C])}$$$$ (last 3' nucleoside missing)” has a 3 h FOB score of 4 score 0-7.
Work on “RNA1{[moe](G)[sp].[moe](G)p.[moe](T)p.[moe](T)p.[moe]([m5C])[sp].d(A)[sp].d(G)[sp].d(T)[sp].d(G)[sp].d(T)[sp].d(T)[sp].d(G)[sp].d(T)[sp].d(G)[sp].d(A)[sp].[moe]([m5C])p.[moe](A)p.[moe](A)[sp].[moe](T)}$$$$ (last 3' nucleoside missing)” yielded a 3 h FOB score of 7 score 0-7.
Substance “RNA1{[moe](G)[sp].[moe](G)p.[moe]([m5C])p.[moe](A)p.[moe](A)[sp].d(A)[sp].d(G)[sp].d(G)[sp].d(T)[sp].d(A)[sp].d(T)[sp].d(T)[sp].d(T)[sp].d([m5C])[sp].d(A)[sp].[moe](G)p.[moe](A)p.[moe]([m5C])[sp].[moe](T)}$$$$ (last 3' nucleoside missing)” has a 3 h FOB score of 6.5 score 0-7.
Work on “RNA1{[moe](G)[sp].[moe](G)p.[moe]([m5C])p.[moe](A)p.[moe]([m5C])[sp].d(T)[sp].d(T)[sp].d(T)[sp].d([m5C])[sp].d(T)[sp].d(T)[sp].d(T)[sp].d(T)[sp].d(T)[sp].d(A)[sp].[moe](T)p.[moe](T)p.[moe](T)[sp].[moe]([m5C])}$$$$ (last 3' nucleoside missing)” yielded a 3 h FOB score of 1 score 0-7.

— the OligoGym collection
